From publication PMC7464788, “Modification and Targeted Design of N-Terminal Truncates Derived from Brevinin with Improved Therapeutic Efficacy” (Biology, 2020)
Converted amounts (≈) assume the structure as drawn. “And” between values parts separate entries of the source, which are not always exact repeats. Equal entries are not always repeated. Positions of bridges follow the written chain, without caps; N, C: chain ends. Residues, ends and D or L forms follow the SMILES beside them.

Experiments:
horse erythrocytes = assay: Haemolytic assay; format: cell-based; conditions: 2% (v/v) horse red blood cells, 37 °C, 2 h; 1% Triton-X 100 positive control; three times in five replicates
Method: The haemolytic assay was carried out to detect the cytotoxicity of each peptide to erythrocytes obtained from fresh defibrinated horse blood as described before. An appropriate volume of horse blood solution was collected via washing and transferring until the supernatant was clear. Then, 2% (v/v) suspension of red blood cells were incubated with peptide at 37 °C for 2 h. For positive and negative controls, the red blood cells were incubated with 1% (v/v) Triton-X 100 and Phosphate-buffered saline (PBS) solution, respectively. The 10% of maximal haemolysis concentration (HC10, μM) was utilised to assess the haemolytic potential. Experiments were repeated three times in five replicates.

[1] = test system: methicillin-resistant S. aureus (MRSA) (NCTC12493); format: cell-based, Staphylococcus aureus
Method: (§1) The antimicrobial assay was carried out to detect the minimum inhibitory concentration (MIC) and the minimum bactericidal concentration (MBC) of each peptide on the microbes as described previously. Seven different microorganisms were used in the assay: Gram-positive bacteria Staphylococcus aureus (NCTC10788), Enterococcus faecalis (NCTC12697), and methicillin-resistant S. aureus (MRSA) (NCTC12493); Gram-negative bacteria Escherichia coli (NCTC10418), Pseudomonas aeruginosa (ATCC27853), and Klebsiella pneumoniae (ATCC 43816); and fungi Candida albicans (NCYC1467). Bacterial strains were inoculated and grown to mid-log phase in fresh Mueller Hinton broth (MHB) at 37 °C for overnight, then bacteria inoculum suspensions were subcultured until reaching the logarithmic growth phase by measuring OD of the cultures at wavelength 550 nm. Then, 99 µL bacteria and 1 µL peptide solution were mixed in the 96-wells microplate. For positive and negative controls, the bacteria were incubated with antibiotics (Norfloxacin for Gram-positive bacteria and Gram-negative bacteria; Amphotericin B for fungi) solution and MHB medium, respectively. Experiments were repeated five times in five replicates.

[2] = test system: Klebsiella pneumoniae (ATCC 43816); format: cell-based
Method: as §1

[3] = test system: Pseudomonas aeruginosa (ATCC27853); format: cell-based
Method: as §1

[4] = test system: Staphylococcus aureus (NCTC10788); format: cell-based
Method: as §1

[5] = test system: Enterococcus faecalis (NCTC12697); format: cell-based
Method: as §1

[6] = test system: Candida albicans (NCYC1467); format: cell-based
Method: as §1

[7] = test system: Escherichia coli (NCTC10418); format: cell-based
Method: as §1

| MIC MRSA [1] [µM] | MIC K. pneumoniae [2] [µM] | MIC P. aeruginosa [3] [µM] | MIC E. faecalis [5] [µM] | MIC C. albicans [6] [µM] | MIC E. coli [7] [µM] | Compound | HC10 (concentration causing 10% red cell lysis) (horse erythrocytes) | MBC MRSA [1] [µM] | MBC K. pneumoniae [2] [µM] | MBC P. aeruginosa [3] [µM] | MBC S. aureus [4] [µM] | MBC E. faecalis [5] [µM] | MBC C. albicans [6] [µM] | MBC E. coli [7] [µM] |
| --- | --- | --- | --- | --- | --- | --- | --- | --- | --- | --- | --- | --- | --- | --- |
| > 512 | > 512 | > 512 | > 512 | 512 (≈ 952 µg/mL) | 512 (≈ 952 µg/mL) | CC[C@H](C)[C@@H]1NC(=O)[C@H](C)NC(=O)[C@@H](NC(=O)[C@H](CCCCN)NC(=O)[C@H](C)NC(=O)[C@H](C)NC(=O)[C@H](CC(C)C)NC(=O)CNC(=O)[C@H](C)NC(=O)[C@@H](NC(=O)[C@H](CC(C)C)NC(=O)[C@@H]2CCCN2C(=O)[C@H](CC(C)C)NC(=O)[C@@H](N)Cc2ccccc2)[C@@H](C)CC)CSSC[C@@H](C(=O)O)NC(=O)[C@H](CCCCN)NC(=O)[C@H](CCCCN)NC(=O)[C@H]([C@@H](C)O)NC1=O [Peptide B1A1] (H-FLPLIAGLAAKCAITKKC-OH; disulfide 12-18) | could not be calculated and >512 µM | > 512 | > 512 | > 512 | > 512 | > 512 | 512 (≈ 952 µg/mL) | > 512 |
| 8 (≈ 15.6 µg/mL) | 32 (≈ 62.5 µg/mL) | 64 (≈ 125 µg/mL) | 256 (≈ 500 µg/mL) | 8 (≈ 15.6 µg/mL) | 16 (≈ 31.2 µg/mL) | CC[C@H](C)[C@@H]1NC(=O)[C@H](C)NC(=O)[C@@H](NC(=O)[C@H](Cc2ccccc2)NC(=O)[C@@H](NC(=O)[C@H](CCCCN)NC(=O)[C@H](Cc2c[nH]c3ccccc23)NC(=O)[C@@H]2CCCN2C(=O)[C@H](CC(C)C)NC(=O)[C@H](Cc2ccccc2)NC(=O)[C@H](CCCCN)NC(=O)[C@@H](N)CCCCN)[C@@H](C)CC)CSSC[C@@H](C(=O)O)NC(=O)[C@H](CCCCN)NC(=O)[C@H](CCCCN)NC(=O)[C@H]([C@@H](C)O)NC1=O [KKWB2] (H-KKFLPWKIFCAITKKC-OH; disulfide 10-16) | 140.04 µM | 32 (≈ 62.5 µg/mL) | 32 (≈ 62.5 µg/mL) | 64 (≈ 125 µg/mL) | 16 (≈ 31.2 µg/mL) | 512 (≈ 1000 µg/mL) | 32 (≈ 62.5 µg/mL) | 32 (≈ 62.5 µg/mL) |
| 16 (≈ 41.7 µg/mL) | 16 (≈ 41.7 µg/mL) | 32 (≈ 83.4 µg/mL) | 8 (≈ 20.8 µg/mL) | 4 (≈ 10.4 µg/mL) | 8 (≈ 20.8 µg/mL) | CC[C@H](C)[C@@H]1NC(=O)[C@H](C)NC(=O)[C@@H](NC(=O)[C@H](Cc2ccccc2)NC(=O)[C@@H](NC(=O)[C@H](CCCCN)NC(=O)[C@@H]2CCCN2C(=O)[C@H](CC(C)C)NC(=O)[C@H](Cc2ccccc2)NC(=O)[C@H](CCCCN)NC(=O)[C@H](C)NC(=O)[C@H](C)NC(=O)[C@H](CC(C)C)NC(=O)CNC(=O)[C@H](C)NC(=O)[C@@H](NC(=O)[C@H](CC(C)C)NC(=O)[C@@H]2CCCN2C(=O)[C@H](CC(C)C)NC(=O)[C@@H](N)Cc2ccccc2)[C@@H](C)CC)[C@@H](C)CC)CSSC[C@@H](C(=O)O)NC(=O)[C@H](CCCCN)NC(=O)[C@H](CCCCN)NC(=O)[C@H]([C@@H](C)O)NC1=O [Peptide B1A] (H-FLPLIAGLAAKFLPKIFCAITKKC-OH; disulfide 18-24) | 1.576 µM | 32 (≈ 83.4 µg/mL) | 16 (≈ 41.7 µg/mL) | 64 (≈ 167 µg/mL) | 8 (≈ 20.8 µg/mL) | 32 (≈ 83.4 µg/mL) | 8 (≈ 20.8 µg/mL) | 32 (≈ 83.4 µg/mL) |
| 16 (≈ 26.2 µg/mL) | 256 (≈ 419 µg/mL) | 512 (≈ 839 µg/mL) | 512 (≈ 839 µg/mL) | 128 (≈ 210 µg/mL) | – | CC[C@H](C)[C@@H]1NC(=O)[C@H](C)NC(=O)[C@@H](NC(=O)[C@H](Cc2ccccc2)NC(=O)[C@@H](NC(=O)[C@H](CCCCN)NC(=O)[C@@H]2CCCN2C(=O)[C@H](CC(C)C)NC(=O)[C@H](Cc2ccccc2)NC(=O)[C@@H](N)CCCCN)[C@@H](C)CC)CSSC[C@@H](C(=O)O)NC(=O)[C@H](CCCCN)NC(=O)[C@H](CCCCN)NC(=O)[C@H]([C@@H](C)O)NC1=O [KB2] (H-KFLPKIFCAITKKC-OH; disulfide 8-14) | 154 µM | 128 (≈ 210 µg/mL) | 256 (≈ 419 µg/mL) | > 512 | – | > 512 | 512 (≈ 839 µg/mL) | – |
